Measurements published in patent US8937069B2, “Substituted pyrrolo[2,3-B]pyrazine compounds and their use” (Novartis AG, priority 2012, dated 2015).
pEC50: −log10 of the molar value.

Target: T1, IP receptor (Homo sapiens, UniProt P43119)
T1 construct: expressed in transfected cells; host or cells: CHO cells stably expressing the IP receptor (CHO-IP)
Assay: cAMP accumulation in CHO cells stably expressing the IP receptor (CHO-IP), PerkinElmer AlphaScreen assay
Format: cell-based
Conditions: agonist activity, 1 hour at room temperature, 4-parameter logistic fit
Protocol: Activity of compounds at the IP receptor (IP receptor) is assessed by measuring cAMP accumulation in CHO cells stably expressing the IP receptor (CHO-IP) using the PerkinElmer AlphaScreen assay. This technology measures the endogenous production of cAMP, in a non-radioactive luminescence proximity homogenous assay. A biological reaction occurs between streptavidin coated donor beads, biotinylated cAMP and anti-cAMP acceptor beads, bringing the donor and acceptor beads close enough together so that upon excitation a fluorescence signal is produced. On production of endogenous cAMP, competition between the biotinylated cAMP and cellular-derived cAMP causes a reduction in the fluorescent signal. The reduction in signal is proportional to the amount of cAMP being produced, thus it is possible to quantify the amount of cAMP being produced on stimulation with agonist.
Test and reference compounds are prepared at 100×[final] in 100% DMSO, and diluted 1:3 using a Biomek Fx (Beckman Coulter). This is followed by an intermediate dilution to give 5×[final] in assay buffer (HBSS containing 5 mM HEPES, 0.1% (w/v) BSA). 5 μL of 5×[final] test compounds, reference compounds and buffer/DMSO control are then transferred to a 384-well white OptiPlate, containing 20 μL CHO-IP cell suspension (15,000 cells/well, prepared from frozen), and plate is incubated at room temperature for 1 hour. A cAMP standard curve is constructed for each experiment (concentration range of 10000 nM to 0.001 nM, in assay buffer) and 25 μL of each concentration added to the last two columns of the assay plate. The incubation is terminated by the addition of lysis buffer (dH2O; 0.3% (v v^−1) Tween-20) containing 20 units mL^−1 streptavidin coated donor beads and biotinylated cAMP (pre-incubated for 30 minutes) and 20 units mL^−1 anti-cAMP acceptor beads, which are added to the lysis buffer just before addition to the assay plate. The assay plate is then incubated at room temperature in the dark, for 60 minutes with gentle shaking, and read on the Envision plate reader (Perkin Elmer).
The raw data of the reference compounds, test compounds and controls are converted into cAMP concentrations, using the cAMP standard curve, in GraphPadPrism (GraphPad Software Inc). EC50 as well as maximal values of the agonist curves are determined using a 4-parameter logistic equation. The % maximum response values of all test compounds are determined using the top of the treprostinil concentration-response curve.

T1 sequence (P43119 whole entry): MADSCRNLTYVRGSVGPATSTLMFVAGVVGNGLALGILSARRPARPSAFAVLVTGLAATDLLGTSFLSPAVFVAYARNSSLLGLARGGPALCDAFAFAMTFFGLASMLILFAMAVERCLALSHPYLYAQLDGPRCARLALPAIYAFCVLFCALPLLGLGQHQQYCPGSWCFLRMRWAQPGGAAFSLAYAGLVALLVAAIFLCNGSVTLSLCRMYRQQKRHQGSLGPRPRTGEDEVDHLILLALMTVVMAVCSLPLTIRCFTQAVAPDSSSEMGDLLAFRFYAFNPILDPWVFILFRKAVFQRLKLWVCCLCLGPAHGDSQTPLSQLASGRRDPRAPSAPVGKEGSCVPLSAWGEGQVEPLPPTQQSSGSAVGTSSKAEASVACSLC

pEC50	SMILES
8.25	O=C(O)CCCCCCn1c(C2CC2)cc2nc(-c3ccc(Cl)cc3)c(-c3ccc(Cl)cc3)nc21 [Example 10.2, 7-(2,3-bis(4-chlorophenyl)-6-cyclopropyl-5H-pyrrolo[2,3-b]pyrazin-5-yl)heptanoic acid]
8.60	Cc1ccc(-c2nc3c(cc(C4CC4)n3CCCCCCC(=O)O)nc2-c2cccc(C)c2)cc1 [Example 10.8, 7-(6-cyclopropyl-2-(m-tolyl)-3-(p-tolyl)-5H-pyrrolo[2,3-b]pyrazin-5-yl)heptanoic acid]
8.36	CCc1ccc(-c2nc3c(cc(C4CC4)n3CCCCCCC(=O)O)nc2-c2ccc(C)cc2)cc1 [Example 10.5, 7-(6-cyclopropyl-3-(4-ethylphenyl)-2-(p-tolyl)-5H-pyrrolo[2,3-b]pyrazin-5-yl)heptanoic acid]
7.10	Cc1ccc(-c2nc3c(CNC(C)C)cn(CCCCCCC(=O)O)c3nc2-c2ccc(C)cc2)cc1 [Example 4.2, 7-(7-((Isopropylamino)methyl)-2,3-di-p-tolyl-5H-pyrrolo[2,3-b]pyrazin-5-yl)heptanoic acid]
7.22	Cc1cccc(-c2nc3cc(C4CC4)n(CCCCCCC(=O)O)c3nc2-c2cccc(C)c2)c1 [Example 10.4, 7-(6-cyclopropyl-2,3-di-m-tolyl-5H-pyrrolo[2,3-b]pyrazin-5-yl)heptanoic acid]
7.43	Cc1ccc(-c2nc3cc(C4CC4)n(CCCCCCC(=O)O)c3nc2-c2cccc(C)c2)cc1 [Example 10.7, 7-(6-cyclopropyl-3-(m-tolyl)-2-(p-tolyl)-5H-pyrrolo[2,3-b]pyrazin-5-yl)heptanoic acid]
8.17	CCc1ccc(-c2nc3cc(C4CC4)n(CCCCCCC(=O)O)c3nc2-c2ccc(C)cc2)cc1 [Example 10.3, 7-(6-cyclopropyl-2-(4-ethylphenyl)-3-(p-tolyl)-5H-pyrrolo[2,3-b]pyrazin-5-yl)heptanoic acid]
8.62	COc1ccc(-c2nc3cc(C4CC4)n(CCCCCCC(=O)O)c3nc2-c2ccc(C)cc2)cc1 [Example 10.1, 7-(6-cyclopropyl-2-(4-methoxy-phenyl)-3-(p-tolyl)-5H-pyrrolo[2,3-b]pyrazin-5-yl)heptanoic acid]
6.38	CCOC(=O)CCCCCCn1cc(CNC(C)C)c2nc(-c3ccc(C)cc3)c(-c3ccc(C)cc3)nc21 [Example 4.1, Ethyl 7-(7-((isopropylamino)methyl)-2,3-di-p-tolyl-5H-pyrrolo[2,3-b]pyrazin-5-yl)heptanoate]
8.21	COc1ccc(-c2nc3c(cc(C4CC4)n3CCCCCCC(=O)O)nc2-c2ccc(C)cc2)cc1 [Example 10.6, 7-(6-cyclopropyl-3-(4-methoxyphenyl)-2-(p-tolyl)-5H-pyrrolo[2,3-b]pyrazin-5-yl)heptanoic acid]

The next lines start with the compound.

SMILES	pEC50
CCOC(=O)CCCCCCn1ccc2nc(-c3ccc(C)cc3)c(-c3ccc(C)cc3)nc21 [Example 1.4, 7-(2,3-Di-p-tolyl-pyrrolo[2,3-b]pyrazin-5-yl)-heptanoic acid ethyl ester]	7.74
Cc1ccc(-c2nc3ccn(CCCCCCC(=O)O)c3nc2-c2ccc(C)cc2)cc1 [Example 1.5, 7-(2,3-Di-p-tolyl-pyrrolo[2,3-b]pyrazin-5-yl)-heptanoic acid]	8.16
Cc1ccc(-c2nc3cc(C4CC4)n(CCCCC(=O)O)c3nc2-c2ccc(C)cc2)cc1 [Example 12, 5-(6-Cyclopropyl-2,3-di-p-tolyl-5H-pyrrolo[2,3-b]pyrazin-5-yl)pentanoic acid]	6.18
CCc1c(CC)n(CCCCCCC(=O)O)c2nc(-c3ccc(C)cc3)c(-c3ccc(C)cc3)nc12 [Example 17, 7-(6,7-Diethyl-2,3-di-p-tolyl-5H-pyrrolo[2,3-b]pyrazin-5-yl)heptanoic acid]	9.30
CCOC(=O)CCCCCCn1c(C2CC2)cc2nc(-c3ccc(C)cc3)c(-c3ccc(C)cc3)nc21 [Example 1.1, Ethyl 7-(6-cyclopropyl-2,3-di-p-tolyl-5H-pyrrolo[2,3-b]pyrazin-5-yl)heptanoate]	7.24
Cc1ccc(-c2nc3cc(C(F)(F)F)n(CCCCCCC(=O)O)c3nc2-c2ccc(C)cc2)cc1 [Example 16, 7-(2,3-Dip-tolyl-6-(trifluoromethyl)-5H-pyrrolo[2,3-b]pyrazin-5-yl)heptanoic acid]	8.52
CCOC(=O)CCCCCCn1c(C(C)C)cc2nc(-c3ccc(C)cc3)c(-c3ccc(C)cc3)nc21 [Example 1.3, ethyl 7-(6-isopropyl-2,3-di-p-tolyl-5H-pyrrolo[2,3-b]pyrazin-5-yl)heptanoate]	6.55
O=C(O)CCCCCCn1c(C2CC2)cc2nc(-c3ccccc3)c(-c3ccccc3)nc21 [Example 10, 7-(6-Cyclopropyl-2,3-diphenyl-pyrrolo[2,3-b]pyrazin-5-yl)-heptanoic acid]	9.30
Cc1ccc(-c2nc3cc(CCO)n(CCCCCCC(=O)O)c3nc2-c2ccc(C)cc2)cc1 [Example 11, 7-(6-(2-Hydroxyethyl)-2,3-di-p-tolyl-5H-pyrrolo[2,3-b]pyrazin-5-yl)heptanoic acid]	8.80
COCc1cn(CCCCCCC(=O)O)c2nc(-c3ccc(C)cc3)c(-c3ccc(C)cc3)nc12 [Example 14, 7-(7-(Methoxymethyl)-2,3-di-p-tolyl-5H-pyrrolo[2,3-b]pyrazin-5-yl)heptanoic acid]	8.38
Cc1ccc(-c2nc3c(CO)cn(CCCCCCC(=O)O)c3nc2-c2ccc(C)cc2)cc1 [Example 2.2, 7-(7-(Hydroxymethyl)-2,3-di-p-tolyl-5H-pyrrolo[2,3-b]pyrazin-5-yl)heptanoic acid]	7.76
Cc1ccc(-c2nc3cc(CCCCC(=O)NCC(=O)O)[nH]c3nc2-c2ccc(C)cc2)cc1 [Example 8, 2-(5-(2,3-Di-p-tolyl-5H-pyrrolo[2,3-b]pyrazin-6-yl)pentanamido)acetic acid]	5.90
CCOC(=O)CCCCCCn1cc(CO)c2nc(-c3ccc(C)cc3)c(-c3ccc(C)cc3)nc21 [Example 3, Ethyl 7-(7-(hydroxymethyl)-2,3-di-p-tolyl-5H-pyrrolo[2,3-b]pyrazin-5-yl)heptanoate]	6.49
Cc1ccc(-c2nc3c(C=O)cn(CCCCCCC(=O)O)c3nc2-c2ccc(C)cc2)cc1 [Example 2.1, 7-(7-Formyl-2,3di-p-tolyl-5H-pyrrolo[2,3-b]pyrazin-5-yl)heptanoic acid]	8.15
Cc1ccc(-c2nc3cc(C4CC4)n(CCCCCC(=O)O)c3nc2-c2ccc(C)cc2)cc1 [Example 13, 6-(6-Cyclopropyl-2,3-di-p-tolyl-5H-pyrrolo[2,3-b]pyrazin-5-yl)hexanoic acid]	8.62
CCOC(=O)CCCCCCN1CCc2nc(-c3ccc(C)cc3)c(-c3ccc(C)cc3)nc21 [Example 6, Ethyl 7-(2,3-di-p-tolyl-6,7-dihydro-5H-pyrrolo[2,3-b]pyrazin-5-yl)heptanoate]	8.74
COc1cc2nc(-c3ccc(C)cc3)c(-c3ccc(C)cc3)nc2n1CCCCCCC(=O)O [Example 5, 7-(6-Methoxy-2,3-di-p-tolyl-pyrrolo[2,3-b]pyrazin-5-yl)-heptanoic acid]	9.15
Cc1ccc(-c2nc3c(nc2-c2ccc(C)cc2)N(CCCCCCC(=O)O)C(=O)C3)cc1 [Example 15, 7-(6-oxo-2,3-dip-tolyl-6,7-dihydro-5H-pyrrolo[2,3-b]pyrazin-5-yl)heptanoic acid]	8.44
Cc1ccc(-c2nc3cc(C)n(CCCCCCC(=O)O)c3nc2-c2ccc(C)cc2)cc1 [Example 9, 7-(6-Methyl-2,3-di-p-tolyl-5H-pyrrolo[2,3-b]pyrazin-5-yl)heptanoic acid]	9.52
Cc1ccc(-c2nc3cc(C4CC4)n(CCCCCCC(=O)O)c3nc2-c2ccc(C)cc2)cc1 [Example 1, 7-(6-Cyclopropyl-2,3-di-p-tolyl-5H-pyrrolo[2,3-b]pyrazin-5-yl)heptanoic acid]	8.77
Cc1ccc(-c2nc3cc(C(C)C)n(CCCCCCC(=O)O)c3nc2-c2ccc(C)cc2)cc1 [Example 1.2, 7-(6-Isopropyl-2,3-di-p-tolyl-pyrrolo[2,3-b]pyrazin-5-yl)-heptanoic acid]	8.74
Cc1ccc(-c2nc3cc(CCCCC(=O)O)[nH]c3nc2-c2ccc(C)cc2)cc1 [Example 7, 5-(2,3-Di-p-tolyl-5H-pyrrolo[2,3-b]pyrazin-6-yl)-pentanoic acid]	6.49
